The source of these data is patent publication US20220106328A1, “HETEROCYCLIC COMPOUNDS” (Hoffmann-La Roche Inc., priority 2019, published 2022).

This assay concerns the target T1, MAGL (Homo sapiens, UniProt Q99685).
T1 sequence (Q99685 1-303): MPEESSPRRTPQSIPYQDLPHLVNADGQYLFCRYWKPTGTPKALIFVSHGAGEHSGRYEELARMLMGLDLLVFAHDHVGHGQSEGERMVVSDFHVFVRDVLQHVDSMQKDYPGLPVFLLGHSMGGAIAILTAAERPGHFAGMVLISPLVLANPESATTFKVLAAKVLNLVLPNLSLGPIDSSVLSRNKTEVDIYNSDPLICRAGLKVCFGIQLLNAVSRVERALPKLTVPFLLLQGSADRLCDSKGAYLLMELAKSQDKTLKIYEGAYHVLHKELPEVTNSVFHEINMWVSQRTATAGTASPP
The experiment in a line: 2-AG assay (MAGL inhibitory activity; hydrolysis of 2-arachidonoylglycerol to arachidonic acid followed by mass spectrometry). Type of assay: biochemical. The conditions noted are these: 8 μM 2-arachidonoylglycerol, 15 min pre-incubation, 30 min incubation at rt, RapidFire MS read-out. The protocol:
Compounds were profiled for MAGL inhibitory activity by determining the enzymatic activity by following the hydrolysis of the natural substrate 2-arachidonoylglycerol resulting in arachidonic acid, which can be followed by mass spectrometry. This assay is hereinafter abbreviated “2-AG assay”.
A C18 SPE cartridge (G9205A) was used in an ACN/water liquid setup. […] The activity of the compounds was calculated based on the ratio of intensities [arachidonic acid/d8-arachidonic acid].
By IC50 is commonly meant the concentration at which inhibition is half-maximal. Take `O=C1COC2CCN(C(=O)N3CC(c4ccc(C5(C(F)(F)F)CC5)cc4)C3)CC2N1` (single isomer, unassigned) [Example 3, (+)- or (−)-trans-6-[3-[4-[1-(Trifluoromethyl)cyclopropyl]phenyl]azetidine-1-carbonyl]-4,4a,5,7,8,8a-hexahydropyrido[4,3-b][1,4]oxazin-3-one]: the IC50 was 95 nM. For `O=C(N1CC(OCc2ccc(C(F)(F)F)cc2F)C1)N1CC[C@H]2OCCN[C@@H]2C1` (racemic) [Example 31, [3-[[2-Fluoro-4-(trifluoromethyl)phenyl]methoxy]azetidin-1-yl]-[rac-(4aR,8aR)-2,3,4,4a,5,7,8,8a-octahydropyrido[4,3-b][1,4]oxazin-6-yl]methanone], the IC50 turned out to be 2010 nM. The figure for `O=C1CO[C@@H]2CCN(C(=O)N3CCC(C(c4ccc(F)cc4)c4ccc(F)cc4)CC3)C[C@H]2N1` (single isomer, unassigned) [Example 24, (+)- or (−)-trans-6-[4-[Bis(4-fluorophenyl)methyl]piperidine-1-carbonyl]-4,4a,5,7,8,8a-hexahydropyrido[4,3-b][1,4]oxazin-3-one] is 208 nM; for `CC(C)(C)c1ccc(C2CN(C(=O)N3CCC4OCC(=O)NC4C3)C2)cc1` (single isomer, unassigned) [Example 2, (−)- or (+)-trans-6-[3-(4-tert-Butylphenyl)azetidine-1-carbonyl]-4,4a,5,7,8,8a-hexahydropyrido[4,3-b][1,4]oxazin-3-one] it is 39 nM. As to `O=C1CO[C@@H]2CCN(C(=O)N3CC(c4ccc(Oc5ccccc5)cc4)C3)C[C@H]2N1` (single isomer, unassigned) [Example 11, (+)- or (−)-trans-6-[3-(4-Phenoxyphenyl)azetidine-1-carbonyl]-4,4a,5,7,8,8a-hexahydropyrido[4,3-b][1,4]oxazin-3-one], the IC50 was determined as 47 nM. Turning to `O=C1CO[C@H]2CCN(C(=O)N3CC(OCc4ccc(C(F)(F)F)cc4Cl)C3)C[C@@H]2N1` (single isomer, unassigned) [Example 21, (−)- or (+)-trans-6-[3-[[2-Chloro-4-(trifluoromethyl)phenyl]methoxy]azetidine-1-carbonyl]-4,4a,5,7,8,8a-hexahydropyrido[4,3-b][1,4]oxazin-3-one], the IC50 is 78 nM.

In the case of `O=C1CO[C@H]2CCN(C(=O)N3CC(c4ccc(Oc5ccccc5Cl)nc4)C3)C[C@@H]2N1` (single isomer, unassigned) [Example 19, (−)- or (+)-trans-6-[3-[6-(2-Chlorophenoxy)-3-pyridyl]azetidine-1-carbonyl]-4,4a,5,7,8,8a-hexahydropyrido[4,3-b][1,4]oxazin-3-one], the IC50 came out at 32 nM. Turning to `CC(C)(C)c1ccc(C2CN(C(=O)N3CCC4OCC(=O)NC4C3)C2)cc1` (single isomer, unassigned) [Example 1, (+)- or (−)-trans-6-[3-(4-tert-Butylphenyl)azetidine-1-carbonyl]-4,4a,5,7,8,8a-hexahydropyrido[4,3-b][1,4]oxazin-3-one], the IC50 is 235 nM.

In the case of `O=C1CO[C@H]2CCN(C(=O)N3CC(c4ccc(-c5ccc(F)cc5F)cc4)C3)C[C@@H]2N1` (single isomer, unassigned) [Example 14, (−)- or (+)-trans-6-[3-[4-(2,4-Difluorophenyl)phenyl]azetidine-1-carbonyl]-4,4a,5,7,8,8a-hexahydropyrido[4,3-b][1,4]oxazin-3-one], the IC50 was 28 nM. The figure for `O=C1CO[C@H]2CCN(C(=O)N3CCC(Cc4ccc(C(F)(F)F)cc4)CC3)C[C@@H]2N1` (single isomer, unassigned) [Example 29, (−)- or (+)-trans-6-[4-[[4-(Trifluoromethyl)phenyl]methyl]piperidine-1-carbonyl]-4,4a,5,7,8,8a-hexahydropyrido[4,3-b][1,4]oxazin-3-one] is 1300 nM.

Regarding `O=C1CO[C@H]2CCN(C(=O)N3CCC(C(c4ccc(F)cc4)c4ccc(F)cc4)CC3)C[C@@H]2N1` (single isomer, unassigned) [Example 25, (−)- or (+)-trans-6-[4-[Bis(4-fluorophenyl)methyl]piperidine-1-carbonyl]-4,4a,5,7,8,8a-hexahydropyrido[4,3-b][1,4]oxazin-3-one], the IC50 worked out at 5 nM.
